From PubChem BioAssay (NCI)
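Where inhibition never reached the appropriate level, the endpoint shown equals the highest concentration tested. Otherwise, values were interpolated linearly from a five-concentration, 48-hour dose response in 96-well plates. TGI marks complete inhibition of growth.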

How the values were obtained:
Assay in all cases: NCI tumour cell line growth inhibition, 48 h
786-0 renal = test system: 786-0 renal
A498 renal = test system: A498 renal
A549 NSCLC = test system: A549 NSCLC
ACHN renal = test system: ACHN renal
BT-549 breast = test system: BT-549 breast
CAKI-1 renal = test system: CAKI-1 renal
CCRF-CEM leukemia = test system: CCRF-CEM leukemia
COLO 205 colon = test system: COLO 205 colon
DU-145 prostate = test system: DU-145 prostate
EKVX NSCLC = test system: EKVX NSCLC
HCC-2998 colon = test system: HCC-2998 colon
HCT-116 colon = test system: HCT-116 colon
HCT-15 colon = test system: HCT-15 colon
HL-60(TB) leukemia = test system: HL-60(TB) leukemia
HOP-62 NSCLC = test system: HOP-62 NSCLC
HOP-92 NSCLC = test system: HOP-92 NSCLC
HS 578T breast = test system: HS 578T breast
HT29 colon = test system: HT29 colon
IGROV1 ovarian = test system: IGROV1 ovarian
K-562 leukemia = test system: K-562 leukemia
KM12 colon = test system: KM12 colon
LOX IMVI melanoma = test system: LOX IMVI melanoma
M14 melanoma = test system: M14 melanoma
MALME-3M melanoma = test system: MALME-3M melanoma
MCF7 breast = test system: MCF7 breast
MDA-MB-435 = test system: MDA-MB-435
MDA-N = test system: MDA-N
MOLT-4 leukemia = test system: MOLT-4 leukemia
NCI-H226 lung = test system: NCI-H226 lung
NCI-H23 lung = test system: NCI-H23 lung
NCI-H460 lung = test system: NCI-H460 lung
NCI/ADR-RES ovarian = test system: NCI/ADR-RES ovarian
OVCAR-3 ovarian = test system: OVCAR-3 ovarian
OVCAR-4 ovarian = test system: OVCAR-4 ovarian
OVCAR-5 ovarian = test system: OVCAR-5 ovarian
OVCAR-8 ovarian = test system: OVCAR-8 ovarian
PC-3 prostate = test system: PC-3 prostate
RPMI-8226 leukemia = test system: RPMI-8226 leukemia
SF-268 CNS = test system: SF-268 CNS
SF-295 CNS = test system: SF-295 CNS
SF-539 CNS = test system: SF-539 CNS
SK-MEL-2 melanoma = test system: SK-MEL-2 melanoma
SK-MEL-28 melanoma = test system: SK-MEL-28 melanoma
SK-OV-3 ovarian = test system: SK-OV-3 ovarian
SN12C renal = test system: SN12C renal
SNB-19 CNS = test system: SNB-19 CNS
SNB-75 CNS = test system: SNB-75 CNS
SW-620 colon = test system: SW-620 colon
T-47D breast = test system: T-47D breast
TK-10 renal = test system: TK-10 renal
UACC-257 melanoma = test system: UACC-257 melanoma
UO-31 renal = test system: UO-31 renal
NCI-H522 lung = test system: NCI-H522 lung
RXF 393 renal = test system: RXF 393 renal
SK-MEL-5 melanoma = test system: SK-MEL-5 melanoma
SR leukemia = test system: SR leukemia
UACC-62 melanoma = test system: UACC-62 melanoma

Structure (SMILES): CC(C)=CCC[C@@H](C)C1=C(O)C(c2c(I)c(=O)n(C)c(=O)n2C)=C(C)C(=O)C1=O
- TGI (786-0 renal): > 100 µM
- TGI (A498 renal): > 100 µM
- TGI (A549 NSCLC): > 100 µM
- TGI (ACHN renal): > 100 µM
- TGI (BT-549 breast): > 100 µM
- TGI (CAKI-1 renal): > 100 µM
- TGI (CCRF-CEM leukemia): > 100 µM
- TGI (COLO 205 colon): > 100 µM
- TGI (DU-145 prostate): > 100 µM
- TGI (EKVX NSCLC): > 100 µM
- TGI (HCC-2998 colon): > 100 µM
- TGI (HCT-116 colon): > 100 µM
- TGI (HCT-15 colon): > 100 µM
- TGI (HL-60(TB) leukemia): > 100 µM
- TGI (HOP-62 NSCLC): > 100 µM
- TGI (HOP-92 NSCLC): > 100 µM
- TGI (HS 578T breast): > 100 µM
- TGI (HT29 colon): > 100 µM
- TGI (IGROV1 ovarian): > 100 µM
- TGI (K-562 leukemia): > 100 µM
- TGI (KM12 colon): > 100 µM
- TGI (LOX IMVI melanoma): > 100 µM
- TGI (M14 melanoma): > 100 µM
- TGI (MALME-3M melanoma): > 100 µM
- TGI (MCF7 breast): > 100 µM
- TGI (MDA-MB-435): > 100 µM
- TGI (MDA-N): > 100 µM
- TGI (MOLT-4 leukemia): > 100 µM
- TGI (NCI-H226 lung): > 100 µM
- TGI (NCI-H23 lung): > 100 µM
- TGI (NCI-H460 lung): > 100 µM
- TGI (NCI/ADR-RES ovarian): > 100 µM
- TGI (OVCAR-3 ovarian): > 100 µM
- TGI (OVCAR-4 ovarian): > 100 µM
- TGI (OVCAR-5 ovarian): > 100 µM
- TGI (OVCAR-8 ovarian): > 100 µM
- TGI (PC-3 prostate): > 100 µM
- TGI (RPMI-8226 leukemia): > 100 µM
- TGI (SF-268 CNS): > 100 µM
- TGI (SF-295 CNS): > 100 µM
- TGI (SF-539 CNS): > 100 µM
- TGI (SK-MEL-2 melanoma): > 100 µM
- TGI (SK-MEL-28 melanoma): > 100 µM
- TGI (SK-OV-3 ovarian): > 100 µM
- TGI (SN12C renal): > 100 µM
- TGI (SNB-19 CNS): > 100 µM
- TGI (SNB-75 CNS): > 100 µM
- TGI (SW-620 colon): > 100 µM
- TGI (T-47D breast): > 100 µM
- TGI (TK-10 renal): > 100 µM
- TGI (UACC-257 melanoma): > 100 µM
- TGI (UO-31 renal): > 100 µM

Structure (SMILES): COc1cc(/C=N/NC(=O)c2ccc(NC(C)=O)cc2OC)ccc1O
- TGI (786-0 renal): > 100 µM
- TGI (A498 renal): > 100 µM
- TGI (A549 NSCLC): > 100 µM
- TGI (ACHN renal): > 100 µM
- TGI (BT-549 breast): > 100 µM
- TGI (CAKI-1 renal): > 100 µM
- TGI (CCRF-CEM leukemia): > 100 µM
- TGI (COLO 205 colon): > 100 µM
- TGI (DU-145 prostate): > 100 µM
- TGI (EKVX NSCLC): > 100 µM
- TGI (HCT-116 colon): > 100 µM
- TGI (HCT-15 colon): > 100 µM
- TGI (HL-60(TB) leukemia): > 100 µM
- TGI (HOP-92 NSCLC): 54.3 µM
- TGI (HS 578T breast): 81.6 µM
- TGI (HT29 colon): > 100 µM
- TGI (IGROV1 ovarian): > 100 µM
- TGI (K-562 leukemia): > 100 µM
- TGI (KM12 colon): > 100 µM
- TGI (LOX IMVI melanoma): > 100 µM
- TGI (M14 melanoma): > 100 µM
- TGI (MALME-3M melanoma): > 100 µM
- TGI (MCF7 breast): > 100 µM
- TGI (MDA-MB-435): > 100 µM
- TGI (MDA-N): > 100 µM
- TGI (MOLT-4 leukemia): > 100 µM
- TGI (NCI-H226 lung): > 100 µM
- TGI (NCI-H23 lung): > 100 µM
- TGI (NCI-H522 lung): > 100 µM
- TGI (NCI/ADR-RES ovarian): > 100 µM
- TGI (OVCAR-3 ovarian): > 100 µM
- TGI (OVCAR-4 ovarian): > 100 µM
- TGI (OVCAR-5 ovarian): > 100 µM
- TGI (OVCAR-8 ovarian): > 100 µM
- TGI (PC-3 prostate): > 100 µM
- TGI (RPMI-8226 leukemia): > 100 µM
- TGI (RXF 393 renal): > 100 µM
- TGI (SF-268 CNS): > 100 µM
- TGI (SF-295 CNS): > 100 µM
- TGI (SF-539 CNS): > 100 µM
- TGI (SK-MEL-2 melanoma): 93.3 µM
- TGI (SK-MEL-28 melanoma): > 100 µM
- TGI (SK-MEL-5 melanoma): > 100 µM
- TGI (SK-OV-3 ovarian): > 100 µM
- TGI (SN12C renal): > 100 µM
- TGI (SNB-19 CNS): > 100 µM
- TGI (SNB-75 CNS): 73 µM
- TGI (SR leukemia): > 100 µM
- TGI (SW-620 colon): > 100 µM
- TGI (T-47D breast): > 100 µM
- TGI (UACC-62 melanoma): > 100 µM
- TGI (UO-31 renal): > 100 µM
